Experimental data: PMC10953043, “Fluorogenic Granzyme A Substrates Enable Real‐Time Imaging of Adaptive Immune Cell Activity” (Angewandte Chemie (Weinheim an Der Bergstrasse, Germany), 2023)

Biological target: T1, human GzmA (hGzmA), active recombinant (Homo sapiens, UniProt P12544)
T1 construct: active recombinant enzyme (not the pro-form), dimeric
T1 sequence (P12544 29-262): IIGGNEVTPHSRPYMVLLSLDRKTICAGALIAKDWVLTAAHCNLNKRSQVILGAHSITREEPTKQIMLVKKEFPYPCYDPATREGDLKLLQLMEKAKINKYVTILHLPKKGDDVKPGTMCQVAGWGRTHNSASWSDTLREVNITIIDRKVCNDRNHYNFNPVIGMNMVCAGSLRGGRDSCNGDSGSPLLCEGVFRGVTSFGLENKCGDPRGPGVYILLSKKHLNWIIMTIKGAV
Assay: fluorogenic assay with compound […] as substrate
Format: biochemical
Conditions: 100 μM inhibitor, 20 μM compound 9, 20 nM hGzmA, Tris buffer pH 8; covalent

% decrease of the fluorescence signal: > 90%
SMILES: O=c1oc(Cl)c(Cl)c2ccccc12 [3,4‐dichloroisocoumarin]
